Experimental data: ChEMBL document CHEMBL1201862, “PubChem BioAssay data set” (2004)
The source made the active and inactive calls.

Legend:
Large T antigen = Large T antigen (Simian virus 40, UniProt P03070); type: functional, Betapolyomavirus macacae;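 also: Confirmatory-stage PubChem screen for compounds that inhibit SV40 T antigen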
Streptokinase A = target: T1, Streptokinase A (Streptococcus pyogenes serotype M1, UniProt P10520); experiment: viability-normalized secreted streptokinase activity reduction – plasminogen activation absorbance, OD405, dose response (AID 1914); type: functional, Streptococcus pyogenes M1 GAS;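 also: secreted streptokinase activity via plasminogen activation per viability signal from cell pellet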
T1 sequence (P10520 whole entry): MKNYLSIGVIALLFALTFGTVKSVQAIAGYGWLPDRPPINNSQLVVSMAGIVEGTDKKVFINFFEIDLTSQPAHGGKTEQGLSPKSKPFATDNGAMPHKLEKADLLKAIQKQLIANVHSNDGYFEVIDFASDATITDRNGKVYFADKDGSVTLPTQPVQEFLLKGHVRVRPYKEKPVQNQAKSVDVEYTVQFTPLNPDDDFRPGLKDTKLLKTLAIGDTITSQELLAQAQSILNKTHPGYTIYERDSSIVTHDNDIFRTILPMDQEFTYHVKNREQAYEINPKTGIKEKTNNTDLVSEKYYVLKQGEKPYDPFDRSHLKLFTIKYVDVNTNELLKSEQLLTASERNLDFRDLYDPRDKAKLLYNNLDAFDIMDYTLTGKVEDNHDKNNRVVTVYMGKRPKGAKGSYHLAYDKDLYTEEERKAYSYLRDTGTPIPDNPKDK

[1] = target: T2, Polyadenylate-binding protein 1 (Homo sapiens, UniProt P11940); experiment: MLLE binding blockers, Cy5 peptide tracer – biochemical, fluorescence polarization, Cy5-PAM2 peptide, secondary, miRNA deadenylation inhibitor project, dose response (AID 602260); type: functional; conditions: read-out: IC50_Mean
[2] = target: T2, Polyadenylate-binding protein 1; experiment: MLLE domain peptide-binding blockers, IC50 – biochemical, fluorescence polarization, FITC-PAM2 peptide, dose response (AID 602259); type: functional; conditions: read-out: IC50_Mean
[3] = Luminescence Cell-Based Dose Confirmation HTS to Identify Activators of 5'UTR Stem-Loop Driven Alpha-Synuclein mRNA Translation in H4 Neuroglioblastoma Cells. [Related pubchem assays: 1829 (Project Summary), 1814 (Primary HTS)]; type: functional
[4] = Luminescence Cell-Based Dose Response HTS to Identify Activators of Luciferase Translation or Activity in H4 […] Cells. [Related pubchem assays: 1829 (Project Summary), 1814 (Primary HTS)]; type: functional
H4 = experiment: Luminescence Cell-Based Dose Response HTS to Identify Activators of 5'UTR Stem-Loop Driven Prion Protein mRNA Translation in H4 Neuroglioblastoma Cells. [Related pubchem assays: 1829 (Project Summary), 1814 (Primary HTS)]; type: functional; conditions: Homo sapiens
[5] = target: T3, Ubiquitin-conjugating enzyme E2 N (Homo sapiens, UniProt P61088); type: functional;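 also: Dose-response confirmation in a TR-FRET assay detecting UBC13-driven polyubiquitin chain formation, inhibition measured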
T3 sequence (P61088 whole entry): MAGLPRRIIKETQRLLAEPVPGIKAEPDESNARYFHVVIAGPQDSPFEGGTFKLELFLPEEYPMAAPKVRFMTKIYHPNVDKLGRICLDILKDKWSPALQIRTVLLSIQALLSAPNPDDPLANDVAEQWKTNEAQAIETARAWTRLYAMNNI

INS1 = experiment: INS-1E survival protection against cytokine death – cell-based, luminescence, retest, dose response (AID 449756); type: functional; conditions: Rattus norvegicus;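 also: cell death triggered by IL-1 beta plus TNF-alpha plus IFN-gamma mixture; protective hits raise ATP signal compared with cytokine alone wells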
[6] = blockers of HIV-1 envelope-mediated cell-cell fusion – cherry-pick, dose response (AID 652057); type: functional, cell-based
[7] = blockers of HIV-1 ZM109 envelope-driven cell-cell fusion – HeLa effector, CEM target cells, luciferase, cherry-pick, dose response (AID 652058); type: functional, cell-based;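 also: luciferase signal from HIV-1 Env mediated cell-cell fusion of effector and target cells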
[8] = off-target signal loss in HeLa-CEM21 co-culture – HeLa F-luc CTL cells, cherry-picked, counter-screen for HIV-1 Env fusion inhibitor project, dose response (AID 652040); type: functional, cell-based;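 also: potency for signal decrease marking cytotoxic or nonspecific inhibition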
[9] = HIV-1 AD8 envelope cell-cell fusion blockers – cherry-pick, dose response (AID 652062); type: functional, cell-based;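 also: luciferase signal from cell-cell fusion driven by HIV-1 clade B AD8 Env; potency is for inhibitors of fusion seen as a drop in luminescence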
[10] = luciferase reporter signal suppression in cells – H4 neuroglioma cells, luminescence, dose response (AID 1990); type: functional, cell-based
[11] = Luminescence Cell-Based Dose Response HTS to Identify Inhibitors of 5'UTR Stem-Loop Driven Prion Protein mRNA Translation in H4 Neuroglioblastoma Cells. [Related pubchem assays: 1827 (Project Summary), 1813 (Primary HTS)]; type: functional
[12] = alpha-synuclein stem-loop luciferase translation blockers – H4 neuroglioma cells, luminescence, confirmation (AID 1988); type: functional, cell-based
[13] = Luminescence Cell-Based Dose Retest to Confirm Inhibitors of Cancer Stem Cells. [Related pubchem assays (depositor defined):AID2717, AID2721]; type: functional; conditions: Homo sapiens
[14] = target: T4, Heat shock factor protein 1 (Mus musculus, UniProt P38532); experiment: decrease of HSF1-responsive luciferase luminescence – cell-based, NIH3T3, dose retest, confirmation (AID 2382); type: functional;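 also: NIH3T3 fibroblasts with HSF1-driven luciferase reporter stressed by proteasome inhibitor MG132; luminescence from HSF1-driven luciferase expression after 8 hours of MG132 stress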
T4 sequence (P38532 whole entry): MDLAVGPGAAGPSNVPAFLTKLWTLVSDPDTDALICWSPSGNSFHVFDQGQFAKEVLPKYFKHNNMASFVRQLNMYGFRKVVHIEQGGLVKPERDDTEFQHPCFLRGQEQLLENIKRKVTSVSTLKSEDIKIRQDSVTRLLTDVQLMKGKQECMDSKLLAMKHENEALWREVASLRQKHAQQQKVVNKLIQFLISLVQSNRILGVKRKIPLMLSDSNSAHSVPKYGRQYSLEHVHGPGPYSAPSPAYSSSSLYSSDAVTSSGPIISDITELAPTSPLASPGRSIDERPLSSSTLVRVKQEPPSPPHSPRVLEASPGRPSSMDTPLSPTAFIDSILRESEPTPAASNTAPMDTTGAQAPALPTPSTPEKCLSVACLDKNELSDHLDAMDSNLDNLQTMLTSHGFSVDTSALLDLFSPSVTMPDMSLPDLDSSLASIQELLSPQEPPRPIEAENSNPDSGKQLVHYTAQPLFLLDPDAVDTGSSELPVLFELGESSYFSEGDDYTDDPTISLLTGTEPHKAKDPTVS

[15] = target: T5, Rac GTPase-activating protein 1 (Homo sapiens, UniProt Q9H0H5); experiment: blockers of MgcRacGAP-driven Rac1 GTP hydrolysis – biochemical, ADP Hunter fluorescence, primary and confirmatory, confirmation (AID 624330); type: functional
T5 sequence (Q9H0H5 whole entry): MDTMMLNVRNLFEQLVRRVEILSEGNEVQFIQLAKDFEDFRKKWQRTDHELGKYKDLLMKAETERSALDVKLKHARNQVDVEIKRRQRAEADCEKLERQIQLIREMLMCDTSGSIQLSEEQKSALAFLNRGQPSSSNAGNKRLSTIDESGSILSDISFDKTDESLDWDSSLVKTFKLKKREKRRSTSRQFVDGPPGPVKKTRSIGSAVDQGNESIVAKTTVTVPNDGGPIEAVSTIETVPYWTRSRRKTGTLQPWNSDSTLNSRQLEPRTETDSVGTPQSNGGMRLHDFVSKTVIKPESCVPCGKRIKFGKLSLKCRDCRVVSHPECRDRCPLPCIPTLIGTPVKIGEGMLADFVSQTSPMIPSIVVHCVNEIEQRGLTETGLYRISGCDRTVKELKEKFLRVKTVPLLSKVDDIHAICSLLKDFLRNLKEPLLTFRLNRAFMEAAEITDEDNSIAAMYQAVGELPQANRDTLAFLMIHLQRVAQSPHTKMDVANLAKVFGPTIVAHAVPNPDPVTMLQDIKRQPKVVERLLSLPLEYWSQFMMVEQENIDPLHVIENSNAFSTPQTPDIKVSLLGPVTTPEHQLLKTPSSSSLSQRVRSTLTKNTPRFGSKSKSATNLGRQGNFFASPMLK

[16] = P. falciparum Dd2 growth inhibitors, dose response, SYBR Green, cherry-picked samples (AID 1159567); type: functional, cell-based

T2 sequence (P11940 whole entry, the tested form may be a part): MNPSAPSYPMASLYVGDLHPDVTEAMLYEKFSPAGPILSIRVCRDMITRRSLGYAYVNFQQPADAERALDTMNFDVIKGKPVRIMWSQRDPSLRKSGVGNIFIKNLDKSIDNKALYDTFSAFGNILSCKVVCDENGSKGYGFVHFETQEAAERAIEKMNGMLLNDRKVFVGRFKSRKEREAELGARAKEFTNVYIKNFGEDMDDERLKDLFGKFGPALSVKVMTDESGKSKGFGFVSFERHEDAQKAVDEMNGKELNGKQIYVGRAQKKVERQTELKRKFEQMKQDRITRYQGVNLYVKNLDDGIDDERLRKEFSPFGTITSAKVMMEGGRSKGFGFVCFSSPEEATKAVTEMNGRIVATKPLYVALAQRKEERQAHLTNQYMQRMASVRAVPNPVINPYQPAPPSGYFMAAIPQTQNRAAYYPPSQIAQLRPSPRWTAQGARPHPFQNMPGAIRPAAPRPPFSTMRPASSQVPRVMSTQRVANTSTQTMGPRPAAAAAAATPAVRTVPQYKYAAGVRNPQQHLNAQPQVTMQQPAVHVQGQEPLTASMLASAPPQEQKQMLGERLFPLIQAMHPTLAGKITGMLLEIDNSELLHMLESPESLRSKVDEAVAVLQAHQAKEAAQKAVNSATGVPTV
Sequence of Large T antigen (P03070 whole entry): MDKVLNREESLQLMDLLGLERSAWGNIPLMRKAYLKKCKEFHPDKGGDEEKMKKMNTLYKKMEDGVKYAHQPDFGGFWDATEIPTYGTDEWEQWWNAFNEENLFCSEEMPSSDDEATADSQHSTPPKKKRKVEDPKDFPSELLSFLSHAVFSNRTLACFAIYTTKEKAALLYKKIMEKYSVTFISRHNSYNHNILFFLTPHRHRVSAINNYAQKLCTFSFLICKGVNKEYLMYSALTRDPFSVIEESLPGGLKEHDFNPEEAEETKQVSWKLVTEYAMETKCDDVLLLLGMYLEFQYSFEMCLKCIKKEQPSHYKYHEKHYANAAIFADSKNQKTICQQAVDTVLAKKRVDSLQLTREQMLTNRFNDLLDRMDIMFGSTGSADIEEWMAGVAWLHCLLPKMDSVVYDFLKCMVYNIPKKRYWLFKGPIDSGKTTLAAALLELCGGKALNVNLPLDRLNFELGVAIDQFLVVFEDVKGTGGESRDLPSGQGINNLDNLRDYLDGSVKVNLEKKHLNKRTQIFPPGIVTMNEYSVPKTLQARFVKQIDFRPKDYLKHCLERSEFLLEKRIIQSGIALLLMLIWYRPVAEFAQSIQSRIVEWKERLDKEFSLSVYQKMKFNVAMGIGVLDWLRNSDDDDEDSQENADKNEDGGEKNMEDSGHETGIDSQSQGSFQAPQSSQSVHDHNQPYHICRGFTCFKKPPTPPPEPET

## ClCC1=Nc2cccc3cccc(c23)N1
Large T antigen
  IC50: 10 µM (active)

## CC(=O)c1ccc(NC(=S)Nc2ccc(Br)c(Cl)c2)cc1
Streptokinase A
  EC50: > 150 µM (not active)
[1]
  IC50: > 66 µM (inactive)
[2]
  IC50: > 66 µM (inactive)

## O=C(NC(=S)Nc1ccc(O)cc1)c1cncc(Br)c1
Large T antigen
  IC50: 6.41 µM (active)

## COc1cc(C(c2c(C)n[nH]c2O)c2c(C)n[nH]c2O)ccc1OC(=O)c1cccc([N+](=O)[O-])c1
Large T antigen
  IC50: > 100 µM (active)

## COc1ccc(NC(=O)Nc2cccc3cccnc23)cc1
[3]
  EC50: 21.7 µM (active)
[4]
  EC50: 5.48 µM (active)
H4
  EC50: 21.2 µM (active)

## O=C1C(CSCc2ccccc2)NC(=S)N1c1ccccc1 (stereo not given)
[3]
  EC50: > 120 µM (not active)
[4]
  EC50: > 120 µM (not active)
H4
  EC50: > 120 µM (not active)

## CCOc1ccc(C2CC(c3ccc(CC)cc3)Nc3nc(N)nn32)cc1 (stereo not given)
[3]
  EC50: > 120 µM (not active)
[4]
  EC50: 10.5 µM (active)
H4
  EC50: 19.7 µM (active)

## CCc1ccc(S(=O)(=O)N=C(S)NC2CCCCC2)cc1
[1]
  IC50: > 66 µM (inactive)
[2]
  IC50: > 66 µM (inactive)

## CN1C(=O)/C(=C2/C=CC=CN2C)OC1=S
[1]
  IC50: > 66 µM (inactive)
[2]
  IC50: > 66 µM (inactive)

## CCC(=O)NC(c1cccs1)c1cc(Cl)c2ccccc2c1O (stereo not given)
[5]
  IC50: > 20 µM (inactive)

## OCCN1CCN(CC/C=C2/c3ccccc3Sc3ccc(Cl)cc32)CC1
[5]
  IC50: > 20 µM (inactive)

## Fc1ccc(CN(Cc2ccccc2)C(c2cccs2)c2nnnn2C2CCCCC2)cc1 (stereo not given)
INS1
  AC50: 6.47 µM (active)

## CCOC(=O)c1cc(O)n2c(n1)nc1ccccc12
[3]
  EC50: 15.8 µM (active)
[4]
  EC50: 11.4 µM (active)
H4
  EC50: 20.4 µM (active)

## O=C(CSc1nnc(C2COc3ccccc3O2)o1)N1CCCC1 (stereo not given)
[1]
  IC50: > 66 µM (inactive)
[2]
  IC50: > 66 µM (inactive)

## CCc1ccc(-c2cn3nc(C)c(C)nc3n2)cc1
[6]
  AC50: 3.94 µM (active)
[7]
  AC50: 29.3 µM (active)
[8]
  AC50: 11 µM (active)
[9]
  AC50: 6.35 µM (active)

## CC(=O)c1c(C)oc2ccc(N(C(C)=O)S(=O)(=O)c3cccc4cccnc34)cc12
INS1
  AC50: 3.85 µM (active)

## CCCCCc1cc(=O)oc2c(C(CCN3CCCC(C)C3)c3cc(OC)c(OC)c(OC)c3)c(OC)cc(OC)c12 (stereo not given)
[10]
  EC50: > 120 µM (not active)
[11]
  EC50: > 120 µM (not active)
[12]
  EC50: > 120 µM (not active)
[13]
  AC50: 6.25 µM (active)
INS1
  AC50: 8.07 µM (active)

## O=C(CSc1c[nH]nn1)Nc1ccc(O)c(C(=O)O)c1
[14]
  EC50: > 195 µM (not active)
[1]
  IC50: > 66 µM (inactive)
[2]
  IC50: > 66 µM (inactive)

## COc1ccc(CN2C(=O)NC(=O)/C(=C/c3ccoc3)C2=O)cc1
Large T antigen
  IC50: 36.9 µM (active)

## CS(=O)(=O)N1CCN(C(=O)C(Sc2ccccc2)c2ccccc2)CC1 (stereo not given)
[1]
  IC50: > 66 µM (inactive)
[2]
  IC50: > 66 µM (inactive)

## COc1ccnc2c1c(=O)n(Cc1cccc(F)c1)c(=O)n2C
[5]
  IC50: > 20 µM (inactive)

## CC(C)(COC(=O)C(c1ccccc1)c1ccccc1)CN1CCOCC1
[6]
  AC50: 4.96 µM (active)
[7]
  AC50: 2.42 µM (active)
[8]
  AC50: 4.01 µM (active)
[9]
  AC50: 1.83 µM (active)

## O=C(CCCOc1ccc(Cl)cc1Cl)Nc1cc(S(=O)(=O)N2CCOCC2)ccc1N1CCOCC1
[6]
  AC50: 3.23 µM (active)
[7]
  AC50: 11.8 µM (active)
[8]
  AC50: 6.33 µM (active)
[9]
  AC50: 15.8 µM (active)

## Cc1ccc(S(=O)(=O)N2CCCCC2)cc1C(=O)NCCC1=CCCCC1
[6]
  AC50: 3.71 µM (active)
[7]
  AC50: 5.36 µM (active)
[8]
  AC50: 7.03 µM (active)
[9]
  AC50: 17.1 µM (active)

## COc1ccc2[nH]c3c(=O)n(CCCCC(=O)N4CCC(C(N)=O)CC4)c(=S)[nH]c3c2c1
[1]
  IC50: > 66 µM (inactive)
[2]
  IC50: > 66 µM (inactive)
[15]
  IC50: 55.4 µM (active)

## C[C@H](CO)N1C[C@H](C)[C@H](CN(C)C(=O)Cc2ccccc2)OCc2ccccc2-c2c(n(C)c3ccccc23)C1=O
[6]
  AC50: < 0.26 µM (active)
[7]
  AC50: < 0.26 µM (active)
[9]
  AC50: < 0.26 µM (active)

## CC(C)C[C@@H](CN(C)N=O)N(C[C@H](Cc1ccccc1)N(CCc1ccccc1)N=O)N=O
[6]
  AC50: 4.34 µM (active)
[7]
  AC50: 5.62 µM (active)
[8]
  AC50: 7.74 µM (active)
[9]
  AC50: 7.36 µM (active)

## CC(C)[C@H](CN(N=O)[C@@H](Cc1ccccc1)CN(C)N=O)N(CCc1ccccc1)N=O
[6]
  AC50: 5.66 µM (active)
[7]
  AC50: 12.3 µM (active)
[8]
  AC50: 10.8 µM (active)
[9]
  AC50: 15.5 µM (active)

## CCCOc1ccc2ccccc2c1/C=N/n1cnnc1
[6]
  AC50: 24.8 µM (active)
[7]
  AC50: 4.27 µM (active)
[8]
  AC50: 25.6 µM (active)
[9]
  AC50: 18.5 µM (active)

## COc1ccc(O)c(/C=N/NC(=O)c2cccc(N3CCCC3=O)c2)c1
INS1
  AC50: 3.55 µM (active)

## COc1cc(/C=N/n2cnnc2)ccc1OC(=O)c1ccncc1
Large T antigen
  IC50: 75 µM (active)
[15]
  IC50: 31 µM (active)

## CCCN(C)C[C@@H]1Oc2cc(C#Cc3ccncc3)ccc2S(=O)(=O)N([C@H](C)CO)C[C@@H]1C
[16]
  AC50: 6.76 µM (active)

## O=C(C1CCC1)N1CC(=O)N2[C@H](CO)[C@@H](c3ccc(C#CCc4ccccc4)cc3)[C@H]2C1
[16]
  AC50: 9.44 µM (active)

## C/C=C/c1ccc([C@H]2[C@@H](CO)N(C(=O)C3CCCC3)[C@H]2CNCCC)cc1
[16]
  AC50: 4.85 µM (active)
